Test results taken from patent EP4818168A1, “FUSED RING COMPOUND, PHARMACEUTICAL COMPOSITION THEREOF AND USE THEREOF” (priority 2023, dated 2025).

Target: T1, AURKA (Homo sapiens, UniProt O14965)
T1 construct: endogenous in cells; host or cells: Jurkat cells
T1 sequence (O14965 1-403): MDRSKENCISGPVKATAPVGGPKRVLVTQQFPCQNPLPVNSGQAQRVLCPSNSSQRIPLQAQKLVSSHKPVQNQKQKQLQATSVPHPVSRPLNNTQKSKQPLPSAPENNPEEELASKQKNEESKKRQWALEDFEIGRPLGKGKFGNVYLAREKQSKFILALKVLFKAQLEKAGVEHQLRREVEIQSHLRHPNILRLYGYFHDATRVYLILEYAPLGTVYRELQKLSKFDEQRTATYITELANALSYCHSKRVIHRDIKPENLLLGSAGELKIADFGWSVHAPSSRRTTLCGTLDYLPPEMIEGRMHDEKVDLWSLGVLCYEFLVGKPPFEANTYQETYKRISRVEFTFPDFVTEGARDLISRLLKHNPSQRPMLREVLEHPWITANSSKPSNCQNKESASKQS
Format: cell-based
Settings: 100 nM compound, Jurkat cells, 24 h, Table 1
Source text: WB is a classical biochemical experimental method used to detect the abundance of a target protein in a sample of cells or biological tissue. It relies on specific antigen-antibody binding to detect protein signals from the sample processed by gel electrophoresis: the protein specifically binds to a primary antibody at an epitope; the primary antibody is then conjugated with a secondary antibody to amplify the signal cascade; the signal is read out by chemiluminescent or fluorescent detection. The intracellular protein content is ultimately characterized by the intensity of the optical signals. […] The DC50 value can be calculated by curve fitting of the protein WB exposure signals.
The experimental procedure is as follows: • 1. Seed Jurkat cells into a 12-well plate at 1×10^6 cells/500 µL/well. • 2. Mix the culture medium with the compound to a concentration that is twice the desired final concentration. […] Transfer the cell suspension to a centrifuge tube. Rinse the 12-well plate with PBS and then transfer the PBS from the plate to the same centrifuge tube. Centrifuge at 3000 rpm for 5 min at room temperature. Aspirate the supernatant using a vacuum pump. […] Lyse on ice for 20 min. • 4. Centrifuge the lysed sample at 13000 rpm for 20 min at 4°C. Mix the supernatant with 5× protein loading buffer. Boil at 100°C for 5 min and then cool. Store the denatured protein sample at -20°C. • 5. […] Run electrophoresis at 80 V for 20 min, and then at 120 V constant voltage for 60 min. • 6. Transfer the protein onto a nitrocellulose membrane in an ice bath at 250 mA constant current for 90 min. • 7. […] Incubate with a primary antibody overnight at 4°C. • 9. […] Incubate with a secondary antibody for 1-2 h at room temperature. • 10. […] Expose and image the membrane using a LICOR Odyssey DLx imager.

Row | SMILES | Percentage of AURKA Degradation Induced by 100 nM Compound in Jurkat Cells
1 | COc1cc(Nc2ncc3c(n2)-c2ccc(Cl)cc2C(c2c(F)cccc2OC)=NC3)ccc1C(=O)N[C@H]1C[C@@H](C#Cc2cccc3c2CN(C2CCC(=O)NC2=O)C3=O)C1 (relative stereo) [Compound A6] | ++ (30% < Degradation ≤ 70%)
2 | COc1cc(Nc2ncc3c(n2)-c2ccc(Cl)cc2C(c2c(F)cccc2OC)=NC3)ccc1C(=O)NCCN1CCN(c2ccc(-n3ccc(=O)[nH]c3=O)cn2)CC1 [Compound A31] | ++ (30% < Degradation ≤ 70%)

Same assay, conditions: 100 nM compound, Jurkat cells, 24 h, Table 2

Row | SMILES | Percentage of AURKA Degradation Induced by 100 nM Compound in Jurkat Cells
3 | O=C1CCN(C23CCC(N4CCN(CCNC(=O)c5ccc(Nc6ncc7c(n6)-c6ccc(Cl)cc6C(c6c(F)cccc6F)=NC7)cc5)CC4)(CC2)CC3)C(=O)N1 [Compound A91] | + (Degradation ≤ 30%)
4 | O=C1CCN(c2ccc(C#CCN3CCn4c(cnc4-c4ccc(Nc5ncc6c(n5)-c5ccc(Cl)cc5C(c5c(F)cccc5F)=NC6)cc4)C3)cc2)C(=O)N1 [Compound A139] | +++ (Degradation > 70%)
5 | COc1cc(Nc2ncc3c(n2)-c2ccc(Cl)cc2C(c2c(F)cccc2F)=NC3)ccc1N1CC(F)(CN2CCN(c3ccc(N4CCC(=O)NC4=O)cn3)CC2)C1 [Compound A289] | +++ (Degradation > 70%)
6 | CP(C)(=O)c1ccc2c(c1)C(c1c(F)cccc1F)=NCc1cnc(Nc3ccc(N4CCN(C5CCN(c6ccc(N7CCC(=O)NC7=O)cn6)CC5)CC4)cc3)nc1-2 [Compound A266] | ++ (30% < Degradation ≤ 70%)
7 | O=C1CCN(c2cnc(N3CC(N4CCN(c5ccc(Nc6ncc7c(n6)-c6ccc(Cl)cc6C(c6c(F)cccc6F)=NC7)cc5)C(=O)C4)C3)s2)C(=O)N1 [Compound A201] | ++ (30% < Degradation ≤ 70%)
8 | O=C1CCN(c2ccc(N3CCC(Cn4cnc(-c5ccc(Nc6ncc7c(n6)-c6ccc(Cl)cc6C(c6c(F)cccc6F)=NC7)cc5)c4)CC3)nc2)C(=O)N1 [Compound A159] | +++ (Degradation > 70%)
9 | Cc1c(N2CCC3(CC2)CN(Cc2cccc(Nc4ncc5c(n4)-c4ccc(Cl)cc4C(c4c(F)cccc4F)=NC5)c2)C3)cccc1N1CCC(=O)NC1=O [Compound A163] | ++ (30% < Degradation ≤ 70%)
10 | CN1C(=O)CCN(c2ccc(N3CCC4(CC3)CC(NC(=O)c3ccc(Nc5ncc6c(n5)-c5ccc(Cl)cc5C(c5c(F)cccc5F)=NC6)cc3)C4)nc2)C1=O [Compound A82] | + (Degradation ≤ 30%)
11 | O=C1CCN(c2ccc([C@H]3C[C@H](N4CC(NC(=O)c5ccc(Nc6ncc7c(n6)-c6ccc(Cl)cc6C(c6c(F)cccc6F)=NC7)cc5)C4)C3)nc2)C(=O)N1 [Compound A113] | +++ (Degradation > 70%)

Same assay, conditions: 1 µM compound, Jurkat cells, 24 h, Table 1

Row | SMILES | Percentage of AURKA Degradation Induced by 1 µM Compound in Jurkat Cells
12 | COc1cc(Nc2ncc3c(n2)-c2ccc(Cl)cc2C(c2c(F)cccc2OC)=NC3)ccc1C(=O)N[C@H]1C[C@@H](C#Cc2cccc3c2CN(C2CCC(=O)NC2=O)C3=O)C1 (relative stereo) [Compound A6] | + (Degradation ≤ 30%)
13 | COc1cc(Nc2ncc3c(n2)-c2ccc(Cl)cc2C(c2c(F)cccc2OC)=NC3)ccc1C(=O)NCCN1CCN(c2ccc(-n3ccc(=O)[nH]c3=O)cn2)CC1 [Compound A31] | ++ (30% < Degradation ≤ 70%)

Same assay, conditions: 1 µM compound, Jurkat cells, 24 h, Table 2

Row | SMILES | Percentage of AURKA Degradation Induced by 1 µM Compound in Jurkat Cells
14 | O=C1CCN(C23CCC(N4CCN(CCNC(=O)c5ccc(Nc6ncc7c(n6)-c6ccc(Cl)cc6C(c6c(F)cccc6F)=NC7)cc5)CC4)(CC2)CC3)C(=O)N1 [Compound A91] | + (Degradation ≤ 30%)
15 | O=C1CCN(c2ccc(C#CCN3CCn4c(cnc4-c4ccc(Nc5ncc6c(n5)-c5ccc(Cl)cc5C(c5c(F)cccc5F)=NC6)cc4)C3)cc2)C(=O)N1 [Compound A139] | +++ (Degradation > 70%)
16 | COc1cc(Nc2ncc3c(n2)-c2ccc(Cl)cc2C(c2c(F)cccc2F)=NC3)ccc1N1CC(F)(CN2CCN(c3ccc(N4CCC(=O)NC4=O)cn3)CC2)C1 [Compound A289] | +++ (Degradation > 70%)
17 | CP(C)(=O)c1ccc2c(c1)C(c1c(F)cccc1F)=NCc1cnc(Nc3ccc(N4CCN(C5CCN(c6ccc(N7CCC(=O)NC7=O)cn6)CC5)CC4)cc3)nc1-2 [Compound A266] | ++ (30% < Degradation ≤ 70%)
18 | O=C1CCN(c2cnc(N3CC(N4CCN(c5ccc(Nc6ncc7c(n6)-c6ccc(Cl)cc6C(c6c(F)cccc6F)=NC7)cc5)C(=O)C4)C3)s2)C(=O)N1 [Compound A201] | ++ (30% < Degradation ≤ 70%)
19 | O=C1CCN(c2ccc(N3CCC(Cn4cnc(-c5ccc(Nc6ncc7c(n6)-c6ccc(Cl)cc6C(c6c(F)cccc6F)=NC7)cc5)c4)CC3)nc2)C(=O)N1 [Compound A159] | +++ (Degradation > 70%)
20 | Cc1c(N2CCC3(CC2)CN(Cc2cccc(Nc4ncc5c(n4)-c4ccc(Cl)cc4C(c4c(F)cccc4F)=NC5)c2)C3)cccc1N1CCC(=O)NC1=O [Compound A163] | + (Degradation ≤ 30%)
21 | CN1C(=O)CCN(c2ccc(N3CCC4(CC3)CC(NC(=O)c3ccc(Nc5ncc6c(n5)-c5ccc(Cl)cc5C(c5c(F)cccc5F)=NC6)cc3)C4)nc2)C1=O [Compound A82] | + (Degradation ≤ 30%)
22 | O=C1CCN(c2ccc([C@H]3C[C@H](N4CC(NC(=O)c5ccc(Nc6ncc7c(n6)-c6ccc(Cl)cc6C(c6c(F)cccc6F)=NC7)cc5)C4)C3)nc2)C(=O)N1 [Compound A113] | ++ (30% < Degradation ≤ 70%)
